Assay results reported in patent US20150005379A1, “[…] METHOD” (PeroxyChem LLC, priority 2013, published 2015).

System: fecal coliform
Assay: Fecal coliform count of wastewater at the contact chamber exit after peracetic acid dosing
Format: cell-based
Conditions: post-sand filter wastewater, 60 min average contact time
Protocol: Wastewater was diverted post-sand filter treatment at a wastewater treatment plant into a rectangular weir disinfectant contact chamber. The flow rate of wastewater through the contact chamber was set at seven gallons per minute; the average contact time in the contact chamber was 60 minutes.
VigorOx® WWT peracetic acid (FMC Corporation; 15% peracetic acid, 23% hydrogen peroxide by weight) was dosed into the wastewater through Control Corporation lab grade pumps. In Comparative Experiment A, the PAA was introduced just prior to the wastewater's entrance into the contact chamber at a rate of 6.1 ppm. In Example 1, PAA was introduced just prior to the wastewater's entrance into the contact chamber at a rate of 1.5 ppm; and additionally at a point 50 minutes after the wastewater's entry into the contact chamber at a rate of 4.5 ppm. The fecal coliform count of the wastewater was measured at the point the wastewater exited from the contact chamber.

CC(=O)OO [PAA, peracetic acid]
samples tested with no-detectable readings of coliform bacteria (Comparative Experiment A: PAA added at a sole point just prior to entrance into contact chamber, 6.1 ppm): about 35%
samples tested with no-detectable readings of coliform bacteria (Example 1: PAA added at two points, 1.5 ppm just prior to entrance and 4.5 ppm at 50 minutes after entry): about 50%
